Test results: paper PMC8355244, “A fragment-based approach identifies an allosteric pocket that impacts malate dehydrogenase activity” (Communications Biology, 2021)
Where “and” joins values, the source holds several entries; their conditions need not be identical. Equal values may be shown once.

Experiments:
PfMDH [1] = target: T1, PfMDH (Plasmodium falciparum, UniProt Q6VVP7); test: Thermal shift assay (TSA); assay type: binding; conditions: for TSA melting curve raw signal: triplicate columns; for TSA melting curve raw fluorescence signal: three replicate columns
T1 construct: The full-length WT PfMDH gene was cloned into pETM-13; made in house; host or cells: E. coli Rosetta 2 (DE3) pLysS
T1 sequence (Q6VVP7 entry or part of it): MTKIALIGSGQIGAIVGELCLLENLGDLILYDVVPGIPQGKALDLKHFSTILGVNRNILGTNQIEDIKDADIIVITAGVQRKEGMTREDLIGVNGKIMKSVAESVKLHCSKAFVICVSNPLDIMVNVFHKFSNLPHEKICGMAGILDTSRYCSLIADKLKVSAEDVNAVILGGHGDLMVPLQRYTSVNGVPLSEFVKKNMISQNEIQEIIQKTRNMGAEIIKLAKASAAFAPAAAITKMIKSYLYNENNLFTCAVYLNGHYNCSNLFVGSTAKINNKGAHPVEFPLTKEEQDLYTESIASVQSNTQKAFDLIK
In short: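 10 μM PfMDH with 1 mM compound in 100 mM Na–phosphate pH 7.4, 400 mM NaCl, 10× Sypro Orange; 1% DMSO controls. Melting inflection points taken as Tm; shifts >1 °C read as stabilization, negative shifts as destabilization.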

PfMDH [2] = target: T1, PfMDH; test: Kinetics experiment with varying L-malate, substrate inhibition model; assay type: biochemical; parameters: key to Ki (best-fit value, substrate inhibition model): Ki in mM; key to Vmax (best-fit value): Vmax in U/mg; 4PA kinetics raw data (rate): unit not given here; conditions: for Ki (best-fit value, substrate inhibition model) / Vmax (best-fit value): pH 10.2, Supplementary Table 6; for 4PA kinetics raw data (rate): replicates

For Nc1nc(-c2ccccc2)cs1 [4PA, 4-phenylthiazol-2-amine], the ΔTm at 1000 µM (PfMDH [1]; 1 mM compound vs DMSO control) was -3 °C, the Tm (PfMDH [1]; 1 mM compound, 10 μM PfMDH, DMSO control Tm 58) was 55.0 ± 0.2 °C and the “TSA melting curve raw signal” value (PfMDH [1]; Temperature 25) was 3101.562 and 3333.877 and 3419.875. For the same molecule, the “TSA melting curve raw signal” value (PfMDH [1]; Temperature 28.5) was 2982.864 and 3197.483 and 3331.476, the “TSA melting curve raw signal” value (PfMDH [1]; Temperature 29) was 2965.133 and 3176.088 and 3316.215 and the “TSA melting curve raw signal” value (PfMDH [1]; Temperature 29.5) was 2946.457 and 3153.433 and 3298.876. For the same molecule, the “TSA melting curve raw signal” value (PfMDH [1]; Temperature 30) was 2926.726 and 3129.047 and 3278.959, the “TSA melting curve raw signal” value (PfMDH [1]; Temperature 30.5) was 2906.089 and 3103.354 and 3257.233 and the “TSA melting curve raw signal” value (PfMDH [1]; Temperature 31) was 2885.408 and 3077.356 and 3234.634. For the same molecule, the “TSA melting curve raw signal” value (PfMDH [1]; Temperature 31.5) was 2865.452 and 3051.863 and 3212.437, the “TSA melting curve raw signal” value (PfMDH [1]; Temperature 32) was 2847.461 and 3027.963 and 3192.183 and the “TSA melting curve raw signal” value (PfMDH [1]; Temperature 32.5) was 2831.845 and 3007.388 and 3175.246. For the same molecule, the “TSA melting curve raw signal” value (PfMDH [1]; Temperature 33) was 2819.491 and 2990.613 and 3162.466, the “TSA melting curve raw signal” value (PfMDH [1]; Temperature 33.5) was 2810.837 and 2978.017 and 3154.456 and the “TSA melting curve raw signal” value (PfMDH [1]; Temperature 34) was 2806.172 and 2970.163 and 3151.8. For the same molecule, the “TSA melting curve raw signal” value (PfMDH [1]; Temperature 34.5) was 2805.279 and 2966.904 and 3154.834, the “TSA melting curve raw signal” value (PfMDH [1]; Temperature 35) was 2808.767 and 2967.899 and 3163.624 and the “TSA melting curve raw signal” value (PfMDH [1]; Temperature 35.5) was 2816.443 and 2973.639 and 3178.538. For the same molecule, the “TSA melting curve raw signal” value (PfMDH [1]; Temperature 36) was 2828.317 and 2984.069 and 3199.383, the “TSA melting curve raw signal” value (PfMDH [1]; Temperature 36.5) was 2844.427 and 2998.946 and 3225.589 and the “TSA melting curve raw signal” value (PfMDH [1]; Temperature 37) was 2864.693 and 3018.271 and 3256.517. For the same molecule, the “TSA melting curve raw signal” value (PfMDH [1]; Temperature 37.5) was 2888.742 and 3042.246 and 3291.976, the “TSA melting curve raw signal” value (PfMDH [1]; Temperature 38) was 2916.555 and 3070.379 and 3330.731 and the “TSA melting curve raw signal” value (PfMDH [1]; Temperature 38.5) was 2948.507 and 3102.617 and 3372.906. For the same molecule, the “TSA melting curve raw signal” value (PfMDH [1]; Temperature 39) was 2984.548 and 3139.232 and 3418.523, the “TSA melting curve raw signal” value (PfMDH [1]; Temperature 39.5) was 3025.238 and 3180.62 and 3468.123 and the “TSA melting curve raw signal” value (PfMDH [1]; Temperature 40) was 3070.846 and 3226.341 and 3521.558. The “TSA melting curve raw signal” value (PfMDH [1]; Temperature 40.5) was 3121.424 and 3276.836 and 3579.878, the “TSA melting curve raw signal” value (PfMDH [1]; Temperature 41) was 3176.735 and 3332.701 and 3643.235 and the “TSA melting curve raw signal” value (PfMDH [1]; Temperature 41.5) was 3236.92 and 3394.066 and 3712.066. The “TSA melting curve raw signal” value (PfMDH [1]; Temperature 42) was 3301.878 and 3461.348 and 3786.574, the “TSA melting curve raw signal” value (PfMDH [1]; Temperature 42.5) was 3371.782 and 3535.427 and 3867.61 and the “TSA melting curve raw signal” value (PfMDH [1]; Temperature 43) was 3446.967 and 3616.442 and 3955.318. The “TSA melting curve raw signal” value (PfMDH [1]; Temperature 43.5) was 3527.686 and 3704.688 and 4050.074, the “TSA melting curve raw signal” value (PfMDH [1]; Temperature 44) was 3614.17 and 3800.745 and 4152.165 and the “TSA melting curve raw signal” value (PfMDH [1]; Temperature 44.5) was 3706.596. The “TSA melting curve raw fluorescence signal” value (PfMDH [1]; Temperature 73.5) was 6991.444 and 7655.524 and 7881.758, the “TSA melting curve raw fluorescence signal” value (PfMDH [1]; Temperature 74) was 6939.612 and 7600.258 and 7826.265 and the “TSA melting curve raw fluorescence signal” value (PfMDH [1]; Temperature 74.5) was 6888.076 and 7546.666 and 7771.787. For the same molecule, the “TSA melting curve raw fluorescence signal” value (PfMDH [1]; Temperature 75) was 6836.407 and 7493.684 and 7717.224, the “TSA melting curve raw fluorescence signal” value (PfMDH [1]; Temperature 75.5) was 6784.183 and 7441.52 and 7662.752 and the “TSA melting curve raw fluorescence signal” value (PfMDH [1]; Temperature 76) was 6731.402 and 7389.749 and 7608.451. For the same molecule, the “TSA melting curve raw fluorescence signal” value (PfMDH [1]; Temperature 76.5) was 6679.444 and 7337.884 and 7553.49, the “TSA melting curve raw fluorescence signal” value (PfMDH [1]; Temperature 77) was 6628.226 and 7285.068 and 7497.822 and the “TSA melting curve raw fluorescence signal” value (PfMDH [1]; Temperature 77.5) was 6578.245 and 7231.451 and 7441.978. The “TSA melting curve raw fluorescence signal” value (PfMDH [1]; Temperature 78) was 6529.803 and 7176.607 and 7385.969, the “TSA melting curve raw fluorescence signal” value (PfMDH [1]; Temperature 78.5) was 6482.748 and 7121.157 and 7329.423 and the “TSA melting curve raw fluorescence signal” value (PfMDH [1]; Temperature 79) was 6436.76 and 7065.937 and 7274.048. For the same molecule, the “TSA melting curve raw fluorescence signal” value (PfMDH [1]; Temperature 79.5) was 6391.899 and 7012.239 and 7219.892, the “TSA melting curve raw fluorescence signal” value (PfMDH [1]; Temperature 80) was 6347.542 and 6960.087 and 7166.546 and the “TSA melting curve raw fluorescence signal” value (PfMDH [1]; Temperature 80.5) was 6302.907 and 6909.426 and 7113.859. The “TSA melting curve raw fluorescence signal” value (PfMDH [1]; Temperature 81) was 6257.989 and 6859.788 and 7062.389, the “TSA melting curve raw fluorescence signal” value (PfMDH [1]; Temperature 81.5) was 6211.993 and 6810.814 and 7010.574 and the “TSA melting curve raw fluorescence signal” value (PfMDH [1]; Temperature 82) was 6164.6 and 6762.251 and 6958.299. The “TSA melting curve raw fluorescence signal” value (PfMDH [1]; Temperature 82.5) was 6116.092 and 6712.951 and 6905.437, the “TSA melting curve raw fluorescence signal” value (PfMDH [1]; Temperature 83) was 6067.721 and 6663.14 and 6852.004 and the “TSA melting curve raw fluorescence signal” value (PfMDH [1]; Temperature 83.5) was 6019.674 and 6612.874 and 6798.049. The “TSA melting curve raw fluorescence signal” value (PfMDH [1]; Temperature 84) was 5972.405 and 6562.27 and 6744.245, the “TSA melting curve raw fluorescence signal” value (PfMDH [1]; Temperature 84.5) was 5926.625 and 6510.347 and 6690.517 and the “TSA melting curve raw fluorescence signal” value (PfMDH [1]; Temperature 85) was 5882.391 and 6459.307 and 6637.567. For the same molecule, the “TSA melting curve raw fluorescence signal” value (PfMDH [1]; Temperature 85.5) was 5838.459 and 6409.022 and 6584.837, the “TSA melting curve raw fluorescence signal” value (PfMDH [1]; Temperature 86) was 5794.143 and 6359.5 and 6531.78 and the “TSA melting curve raw fluorescence signal” value (PfMDH [1]; Temperature 86.5) was 5749.377 and 6310.687 and 6478.281. For the same molecule, the “TSA melting curve raw fluorescence signal” value (PfMDH [1]; Temperature 87) was 5703.739 and 6263.164 and 6424.447, the “TSA melting curve raw fluorescence signal” value (PfMDH [1]; Temperature 87.5) was 5656.691 and 6215.001 and 6369.065 and the “TSA melting curve raw fluorescence signal” value (PfMDH [1]; Temperature 88) was 5609.372 and 6165.882 and 6313.087. The “TSA melting curve raw fluorescence signal” value (PfMDH [1]; Temperature 88.5) was 5562.587 and 6115.522 and 6256.819, the “TSA melting curve raw fluorescence signal” value (PfMDH [1]; Temperature 89) was 5515.924 and 6063.705 and 6199.979 and the “TSA melting curve raw fluorescence signal” value (PfMDH [1]; Temperature 89.5) was 5468.97 and 6010.228 and 6142.345. The “TSA melting curve raw fluorescence signal” value (PfMDH [1]; Temperature 90) was 5422.458, the “Ki (best-fit value, substrate inhibition model)” value (PfMDH [2]; 63 μM) was 63.00 ± 31.8 and the “Vmax (best-fit value)” value (PfMDH [2]; 63 μM) was 645.7 ± 29.0. For the same molecule, the “Ki (best-fit value, substrate inhibition model)” value (PfMDH [2]; 125 μM) was 72.93 ± 41.9, the “Vmax (best-fit value)” value (PfMDH [2]; 125 μM) was 630.2 ± 28.5 and the “4PA kinetics raw data (rate)” value (PfMDH [2]; PfMDH + 63 uM, malate 0.078125 mM) was 0.0098 and 0.01006 and 0.00834. For the same molecule, the “4PA kinetics raw data (rate)” value (PfMDH [2]; PfMDH + 63 uM, malate 0.15625 mM) was 0.01266 and 0.01336 and 0.01325, the “4PA kinetics raw data (rate)” value (PfMDH [2]; PfMDH + 63 uM, malate 0.3125 mM) was 0.01621 and 0.01654 and 0.01602 and the “4PA kinetics raw data (rate)” value (PfMDH [2]; PfMDH + 63 uM, malate 0.625 mM) was 0.02019 and 0.02009 and 0.02113. For the same molecule, the “4PA kinetics raw data (rate)” value (PfMDH [2]; PfMDH + 63 uM, malate 1.25 mM) was 0.02141 and 0.02369 and 0.02088, the “4PA kinetics raw data (rate)” value (PfMDH [2]; PfMDH + 63 uM, malate 2.5 mM) was 0.02622 and 0.02453 and 0.02721 and the “4PA kinetics raw data (rate)” value (PfMDH [2]; PfMDH + 63 uM, malate 10 mM) was 0.02549 and 0.02349 and 0.01973. For the same molecule, the “4PA kinetics raw data (rate)” value (PfMDH [2]; PfMDH + 125 uM, malate 0.078125 mM) was 0.00804 and 0.006868 and 0.007099, the “4PA kinetics raw data (rate)” value (PfMDH [2]; PfMDH + 125 uM, malate 0.15625 mM) was 0.01089 and 0.01117 and 0.0101 and the “4PA kinetics raw data (rate)” value (PfMDH [2]; PfMDH + 125 uM, malate 0.3125 mM) was 0.01419 and 0.01394 and 0.01404. For the same molecule, the “4PA kinetics raw data (rate)” value (PfMDH [2]; PfMDH + 125 uM, malate 0.625 mM) was 0.01376 and 0.01789 and 0.01385, the “4PA kinetics raw data (rate)” value (PfMDH [2]; PfMDH + 125 uM, malate 1.25 mM) was 0.02005 and 0.02063 and 0.0175 and the “4PA kinetics raw data (rate)” value (PfMDH [2]; PfMDH + 125 uM, malate 2.5 mM) was 0.02038 and 0.02019 and 0.02077. The “4PA kinetics raw data (rate)” value (PfMDH [2]; PfMDH + 125 uM, malate 10 mM) was 0.01925 and 0.01826 and 0.01944, the “Ki change vs control” value (PfMDH [2]; in presence of 63 μM compound) was 5 fold and the “Ki change vs control” value (PfMDH [2]; in presence of 125 μM compound) was 6 fold. The Vmax (PfMDH [2]; in the presence of 63 μM compound, control 967.8 ± 99.0) was 645.7 ± 29.0 U mg^−1, the Vmax (PfMDH [2]; in the presence of 125 μM compound) was 630.2 ± 28.5 U mg^−1 and the “mechanism of the inhibition” value (PfMDH [2]; vs malate) was “non-competitive”.
